Data from US7498406B2, “Substantially cell membrane impermeable compound and use thereof” (priority 1999, dated 2009).
“Also recorded” adds a separate entry of the source.

Legend:
[1] = test system: Human T cells (A3.01); experiment: Tritiated GSAO in cytosol (membrane permeability); type: in vitro ADME
Procedure: Human T cells (A3.01) or adherent BAE cells were incubated with complete medium containing 50 μM GSAO and ˜100,000 counts per, minute of tritiated GSAO for 1 or 72 hours. Tritiated GSAO was prepared exactly as described for GSAO except that glycine-2-^3H-glutathione (NEN, Boston, Mass.) was used in place of cold glutathione. The cells were washed and lysed by two cycles of freezing and thawing. The cytosolic constituents were collected by differential centrifugation (Ausbel et al., 2000) and the tritiated GSAO was measured. Only 0.5% of the total tritiated GSAO was found in the T cell cytosol and 0.04% in the BAE cytosol after 1 hour. Moreover, only 4.5% of the GSAO penetrated the T cell membrane after 72 hours of culture.

[2] = test system: HIVIIIB; experiment: HIVIIIB entry into / infection of A3.01 cells, p24 antigen; type: cell-based, HIV
Procedure: FIG. 33. […] Cells were washed and incubated in complete medium at 5% CO2 and 37° C. for up to 10 days. […] B Concentration dependence of GSAO. […] Cells were washed, incubated in complete medium at 5% CO2 and 37° C. for 3 days and the conditioned medium collected and assayed for p24 antigen.
FIG. 34. Inhibition of HIVIIIB infection of A3.01 cells by GSAO.
A3.01 human T cells were exposed to GSAO for 30 minutes and then to HTLVIIIB virus for 2 hours after which the cells were washed and then cultured for up to 10 days. HTLVIIIB and A3.01 cells were obtained from the NIH AIDS Research and Reference Reagent Program, Rockville, Mass. Virus stocks were made and infectivity titer determined using A3.01 cells and the p24 antigen assay (Coulter, Miami, Fla.). A3.01 cells were cultured in RPMI medium containing 10% fetal calf serum. […] Cell numbers and cell viability were determined at the times specified by staining cells with trypan blue and counting using a Neubauer haemacytometer. Cell viability was measured as a percentage of live cells to total cells.

[3] = test system: HT1080 tumours; experiment: Tumour growth in mice, subcutaneous administration; type: in vivo, SCID mice; conditions: 10 mg per kg per day
Procedure: FIG. 25. Inhibition of human fibrosarcoma and murine Lewis lung tumour growth following systemic administration of GSAO. HT1080 or Lewis lung tumours were established in the proximal midline of female 7 to 9 week old SCID or C57Bl6/J mice, respectively. When the tumours were ˜0.1 cm^3 in volume the mice were randomised into two groups (n=5) and treated with either GSAA or GSAO at a dose of 10 mg per kg per day in 0.2 mL of PBS containing 100 mM glycine. The compounds were administered subcutaneously at a site distant from the tumour. Tumour volume and animal weight was measured every 3 days. The GSAO/GSAA HT1080 tumour volume ratio at day 17 of treatment was 0.29 (part A). The GSAO/GSAA Lewis lung tumour volume ratio at day 12 of treatment was 0.29 (part B). The data points and errors represent the mean and SE of the tumour volumes.
Female 7 to 9 week old SCID or C57Bl6/J mice were used (Massachusetts General Hospital, Boston, Mass.). Mice were held in groups of 3 to 5 at a 12 hour day and night cycle and were fed with animal chow and water ad libidum. […] The tumours were measured in two diameters and tumour volume was calculated using the relationship, tumour volume=a×b^2×0.52, where a is the longest and b the shortest diameters in cm. […] Tumour volume and animal weight was measured every 3 days. […]

[4] = Titration of cysteine with GSAO, DTNB assay; type: binding; conditions: cysteine 28 μM, GSAO 0-50 μM, 10 minutes
Procedure: FIG. 11. Titration of DMP or cysteine with GSAO. DMP (15 ? M corresponding to 30 μM thiols) or cysteine (28 μM) was incubated with GSAO (0-50 μM) for 10 minutes. DTNB (950 μM) was then added and the reactions incubated for a further 10 minutes. The concentration of thiol in the reactions was determined from the absorbance of the TNB dianion at 412 nm.
A stock solution of DMP (5 μL, 50 μmol) was dissolved in DMSO (995 μL), giving a concentration of 50 mM DMP, A second dilution of the 50 mM DMP stock solution (10 μL) in pH 7.0 buffer (0.1 M HEPES, 0.3 M NaCl, 1 mM EDTA) (990 μL) gave a working solution of 500 ? M DMP. The activity of the arsenical could then be determined by the titration of varying amounts of arsenical against the DMP working solution (10 μL) in a 96-well microtitre plate, with the total volume made up to 195 μL by addition of buffer. After a 10 minute incubation at room temperature, during which time the solutions were agitated on a plate shaker, 5 μL of a 37.9 mM stock solution of DTNB (15 mg) in DMSO (1 mL) was added, and the plate incubated with shaking for another 10 minutes. The absorbance at 412 nm due to the formation of the TNB dianion was measured using a Molecular Devices Thermomax Plus (Palo Alto, Calif.) microplate reader. The extinction coefficient for the TNB dianion at pH 7.0 is 14, 150 M^−1cm^−1 at 412 nm (Riddles et al., 1983).

Q: Which “total tritiated GSAO found in the cytosol” value ([1]; 50 μM GSAO, 1 hour) does the source give for NC(CCC(=O)NC(CSCC(=O)Nc1ccc([As]=O)cc1)C(=O)NCC(=O)O)C(=O)O (stereo not drawn) [GSAO, 4-(N-(S-glutathionylacetyl)amino)-phenylarsenoxide] here?
A: The value was 0.5%.

Q: What about the “GSAO that penetrated the T cell membrane” value ([1]; 50 μM GSAO, 72 hours of culture) of the same compound?
A: The value was 4.5%.

Q: And the “crossing of the plasma membrane” value ([1]; A3.01 or BAE cells)?
A: The value was “does not cross the plasma membrane to any significant extent”.

Q: What about the “HIVIIIB infection of A3.01 cells” value ([2]; 10 μM, also in the culture medium) of the same compound?
A: The value was “effectively blocked”.

Q: And the “inhibition of HIVIIIB entry” value ([2]; 100 μM, 30 minutes before virus)?
A: The value was “Inhibition of HIVIIIB entry; also recorded: inhibited entry”.

Q: And the IC50 ([2]; Human immunodeficiency virus 1, read-out: half-maximal effect on HIVIIIB entry)?
A: The IC50 was roughly 1 µM.

Q: And the “inhibition of the rate of fibrosarcoma tumour growth” value ([3]; subcutaneous)?
A: Its value is roughly 70%.

Q: What about the “GSAO/GSAA HT1080 tumour volume ratio” value ([3]; day 17 of treatment) of the same compound?
A: The value was 0.29.

Q: What about the “interaction with cysteine in DTNB titration” value [4] of the same compound?
A: Its value is “any interaction of GSAO with cysteine was displaced by DTNB”.
